In EPA's ToxValDB 9.5 (doi:10.2903/j.efsa.2010.1856):
≈ marks a conversion by molar mass, not a printed value.

Tests used:
Typhlodromus pyri = assay: LR50; higher = less toxic; conditions: not reported; mortality
Aphidius rhopalosiphi = assay: LR50; higher = less toxic; conditions: not reported; mortality
Coturnix japonica = conditions: acute, oral, mortality
Apis mellifera = conditions: acute; duration: 48 hours; oral; unspecified; mortality
Daphnia magna = conditions: chronic/long-term; duration: 21 days; reproduction
Canidae = conditions: chronic, duration: 1 years, oral, Dog Other
Colinus virginianus = conditions: reproduction developmental
Oncorhynchus mykiss = conditions: mortality
Phasianus sp. = conditions: acute; oral; unspecified; mortality
Anatidae = conditions: short-term; oral; feed; mortality
Rattus norvegicus = conditions: chronic; duration: 2 years; histopathology: nonneoplastic

`CC1OC(C)OC(C)OC(C)O1` (stereo not drawn) [2,4,6,8-Tetramethyl-1,3,5,7-tetroxocane] was tested, and the LR50 (Typhlodromus pyri) was greater than 350 g/ha, the LR50 (Aphidius rhopalosiphi) was greater than 350 g/ha and the LC50 (Coturnix japonica; diet) was 3460 mg/kg. It also gave an LD50 (Coturnix japonica) of 170 mg/kg-day, an LD50 (Anas platyrhynchos; acute, oral, unspecified, mortality) of 196 mg/kg-day and an NOEC (Anas platyrhynchos; reproductive) of 175 mg/kg. For the same molecule, the LC50 (Tagia sp.; acute, duration: 14 days, mortality) was greater than 1000 mg/kg, the NOEC (Tagia sp.; chronic/long-term, reproduction) was 32 mg/kg and the LD50 (Apis mellifera) was greater than 87.5 µg/piece. The NOEC (Daphnia magna) was 90 mg/L, the NOAEL (Canidae; mortality) was 10 mg/kg-day and the NOAEL (Canidae; neurology) was 30 mg/kg-day. For the same molecule, the NOEC (Colinus virginianus) was 500 mg/kg-day, the LC50 (Oncorhynchus mykiss; acute, duration: 96 hours) was 75 µg/mL (≈ 426 µM) and the NOEC (Oncorhynchus mykiss; chronic/long-term, duration: 21 days) was 37.5 mg/L. For the same molecule, the LD50 (Phasianus sp.) was 262 mg/kg-day, the LC50 (Anatidae) was 3450 mg/kg and the NOAEL (Rattus norvegicus) was 2 mg/kg-day.
